Source: patent US20260364184A1, “COMPOUND BASED ON OXOISOINDOLINYL-SUBSTITUTED TETRAHYDROPYRIMIDINE-DIONE AND USE THEREOF” (GLUETACS THERAPEUTICS (SHANGHAI) CO., LTD., priority 2023, published 2026)

system: AKT; experiment: Western blot degradation of AKT; assay type: cell-based; details: hPBMC Cell; 24 hours
Description: Conventional Western blot assay was performed to evaluate the effects of the compounds of the present disclosure on the expression of target proteins in cells.
(1) Cell Seeding and Protein Harvesting: The selected cells were processed according to the cell seeding procedure and protein harvesting procedure in Table II-2.
(2) To the collected supernatant, 5×SDS sample loading buffer was added, followed by denaturation at 95 °C for 5 minutes. The denatured samples were then separated by SDS-PAGE electrophoresis on a polyacrylamide gel. Proteins were transferred to a nitrocellulose membrane (0.45 μm NC membrane), blocked with blocking buffer at room temperature for 1 hour, and subjected to antibody incubation and development procedures according to the antibody manufacturer's instructions (Cell Signaling Technology).
Half-Maximal Degradation Concentration value (the drug concentration required for degrading proteins by 50%, abbreviated as DC50) reads method: comparing the grayscale values of Western blot bands from drug-treated samples with those from blank DMSO-treated controls, and identifying the drug concentration range at which the grayscale value is half that of the DMSO-treated control bands.
DC50 values can be calculated using ImageJ software to measure grayscale values of Western blot bands from drug-treated samples. The concentration-response curve is fitted to estimate the drug concentration corresponding to half the grayscale value.
Target protein remaining (%) refers to the percentage of target protein remaining in cells after treatment with protein degrader compounds.
Calculation method for target protein remaining (%): Use ImageJ software to measure grayscale values of Western blot bands from drug (protein degrader)-treated samples. The grayscale value of drug-treated bands is divided by that of internal control protein bands, and the resulting quotient is normalized to obtain the relative percentage of remaining target protein after protein degrader treatment.
Target protein degradation rate (%)=1−target protein remaining (%).

| Structure (SMILES) | Degradation of substrate protein AKT (substrate protein remaining %) |
| --- | --- |
| Cn1ncc(Cl)c1-c1cc(C(=O)N[C@H](CNCc2ccc3c(c2)C(=O)N(N2CCC(=O)NC2=O)C3=O)Cc2ccc(F)c(F)c2)oc1Cl [GT-08579, (S)-5-chloro-4-(4-chloro-1-methyl-1H-pyrazol-5-yl)-N-(1-(3,4-difluorophenyl)-3-(((2-(2,4-dioxotetrahydropyrimidin-1(2H)-yl)-1,3-dioxoisoindolin-5-yl)methyl)amino)propan-2-yl) furan-2-carboxamide] | A (0%≤substrate protein remaining %≤80%) |
| Nc1ncccc1-c1nc2ccc(-c3ccccc3)nc2n1-c1ccc(C2(NCc3ccc4c(c3)CN(N3CCC(=O)NC3=O)C4=O)CCC2)cc1 [GT-08573, 1-(5-(((1-(4-(2-(2-aminopyridin-3-yl)-5-phenyl-3H-imidazo[4,5-b]pyridin-3-yl)phenyl)cyclobutyl)amino)methyl)-1-oxoisoindolin-2-yl)dihydropyrimidine-2,4 (1H,3H)-dione] | A (0%≤substrate protein remaining %≤80%) |
| Nc1ncccc1-c1nc2ccc(-c3ccccc3)nc2n1-c1ccc(C2(NCc3ccc4c(c3)C(=O)N(N3CCC(=O)NC3=O)C4=O)CCC2)cc1 [GT-08578, 5-(((1-(4-(2-(2-aminopyridin-3-yl)-5-phenyl-3H-imidazo[4,5-b]pyridin-3-yl)phenyl)cyclobutyl)amino)methyl)-2-(2,4-dioxotetrahydropyrimidin-1(2H)-yl)isoindoline-1,3-dione] | A (0%≤substrate protein remaining %≤80%) |
| Cn1ncc(Cl)c1-c1cc(C(=O)N[C@H](CNCc2ccc3c(c2)C(=O)N(N2CCC(=O)NC2=O)C3=O)Cc2cccc(F)c2)sc1Cl [GT-08577, (S)-5-chloro-4-(4-chloro-1-methyl-1H-pyrazol-5-yl)-N-(1-(((2-(2,4-dioxotetrahydropyrimidin-1(2H)-yl)-1,3-dioxoisoindolin-5-yl)methyl)amino)-3-(3-fluorophenyl)propan-2-yl)thiophene-2-carboxamide] | A (0%≤substrate protein remaining %≤80%) |
| Cn1ncc(Cl)c1-c1cc(C(=O)N[C@@H](Cc2cccc(F)c2)CN2CCN(Cc3ccc4c(c3)C(=O)N(N3CCC(=O)NC3=O)C4=O)CC2)sc1Cl [GT-08581, (S)-5-chloro-4-(4-chloro-1-methyl-1H-pyrazol-5-yl)-N-(1-(4-((2-(2,4-dioxotetrahydropyrimidin-1(2H)-yl)-1,3-dioxoisoindolin-5-yl)methyl)piperazin-1-yl)-3-(3-fluorophenyl)propan-2-yl)thiophene-2-carboxamide] | A (0%≤substrate protein remaining %≤80%) |
| Nc1ncccc1-c1nc2ccc(-c3ccccc3)nc2n1-c1ccc(C2(NCC3CCN(c4ccc5c(c4)C(=O)N(N4CCC(=O)NC4=O)C5=O)CC3)CCC2)cc1 [GT-08583, 5-(4-(((1-(4-(2-(2-aminopyridin-3-yl)-5-phenyl-3H-imidazo[4,5-b]pyridin-3-yl)phenyl)cyclobutyl)amino)methyl)piperidin-1-yl)-2-(2,4-dioxotetrahydropyrimidin-1(2H)-yl)isoindoline-1,3-dione] | A (0%≤substrate protein remaining %≤80%) |
